The source of these data is paper PMC10760840, “Synthesis of new imine-/amine-bearing imidazo[1,2-a]pyrimidine derivatives and screening of their cytotoxic activity” (Turkish Journal of Chemistry, 2023).

One series has as its system HUVEC cells. In words: Sulforhodamine B (SRB) cytotoxicity assay, HUVEC healthy cells. The series is classed as cell-based. The conditions noted are these: Homo sapiens, 48 h. How it is done:
(§1) MCF-7 (human breast cancer) and HUVEC (human umbilical vein endothelial) cell lines were cultured and maintained in high glucose Dulbecco’s modified Eagle medium supplemented with 10% FBS (Gibco Life Technologies, Grand Island, NY, USA), 100 U/mL penicillin, and […]. The MDA–MB-231 (human breast cancer) cell line was cultured in Roswell Park Memorial Institute 1640 (RPMI 1640) medium supplemented with 10% FBS (Gibco Life Technologies), 100 U/mL penicillin, and […]. All cells were passaged by trypsin EDTA when they reached 60%–70% confluence. The cells were cultivated at 37 °C in humidified air containing 5% CO2.
The antiproliferative effects of compounds on breast cancer cells were determined by the sulforhodamine B (SRB) assay. In short, cells were seeded in a 96-well cell culture plate at a density of 5 × 10^4 cells/mL and the plate was incubated for 24 h in a CO2 incubator at 37 °C. MCF-7, MDA–MB-231, and HUVEC cells were cultured for 48 h with escalating doses (1, 5, 10, 25, 50, and 100 μM) of the derivatives for determination of the IC50 values. […] The wells were incubated in 10 mM of the tris-base solution (pH 10.5) for 10 min on a shaker and absorbance values were measured at 565 nm with a microplate reader (Tecan Infinite® 200 PRO, Switzerland). The IC50 values of the compounds were recorded using the software GraphPad Prism 5.

The next series has as its system Bax/Bcl-2 genes. In words: Bax/Bcl-2 mRNA expression by qPCR in MDA–MB-231 cells. The series is classed as cell-based, human. How it is done:
The mRNA levels of the Bax and Bcl-2 genes were analyzed using a qPCR protocol, following the procedure described previously. Briefly, total RNA was extracted from MDA–MB-231 cells using the Total® RNA Purification Plus Kit, following the manufacturer’s instructions (Norgen Biotek, Thorold, ON, Canada). Subsequently, synthesis of cDNA was carried out using the high-capacity cDNA reverse transcription kit (Applied Biosystems, Foster City, CA, USA). The diluted cDNA samples were combined with specific Taqman probes and Taqman PCR Master Mix, and the amplification was recorded using Applied Biosystems 7500 Real-Time PCR systems (Applied Biosystems, Thermo Fisher Scientific) for qPCR. Changes in mRNA expression levels were determined using the comparative ΔΔCT method, with β-actin serving as an endogenous control for the qPCR analysis.

The next series concerns MCF-7 cells. Nature of the series: Sulforhodamine B (SRB) antiproliferative assay, MCF-7. The series is classed as cell-based, human. The conditions noted are these: for IC50: Homo sapiens, MCF7, 48 h, SRB; for IC50 / inhibition on cell proliferation: MCF-7 cells; for inhibition on cell proliferation: 100 μM dose, SRB screening; for Selectivity index (SI): MCF-7 relative to healthy HUVEC cells. How it is done: as §1
(§2) The antiproliferative effects of compounds on breast cancer cells were determined by the sulforhodamine B (SRB) assay. In short, cells were seeded in a 96-well cell culture plate at a density of 5 × 10^4 cells/mL and the plate was incubated for 24 h in a CO2 incubator at 37 °C. MCF-7, MDA–MB-231, and HUVEC cells were cultured for 48 h with escalating doses (1, 5, 10, 25, 50, and 100 μM) of the derivatives for determination of the IC50 values. After incubation, the medium was removed from the wells and each well was incubated with a 10% trichloroacetic acid (TCA) solution for fixation at +4 °C for 1 h. The wells were washed five times with distilled water (dH2O) to get rid of the TCA and the plate was left to dry. Fresh 0.04 (m/V) SRB dye solution was added to each well, followed by incubation for 30 min at room temperature. The plate was then dried using an air dryer after being washed four times with 1% acetic acid solution. The wells were incubated in 10 mM of the tris-base solution (pH 10.5) for 10 min on a shaker and absorbance values were measured at 565 nm with a microplate reader (Tecan Infinite® 200 PRO, Switzerland). The IC50 values of the compounds were recorded using the software GraphPad Prism 5.

In another series the test system is MDA–MB-231 cells. In words: Sulforhodamine B (SRB) antiproliferative assay, MDA–MB-231. The class given is cell-based, human. The conditions noted are these: for IC50: Homo sapiens, 48 h, SRB; for IC50 / inhibition on cell proliferation: MDA–MB-231 cells; for inhibition on cell proliferation: 100 μM dose, SRB screening; for Selectivity index (SI): MDA–MB-231 relative to healthy HUVEC cells. The method, then:
as §1, §2

In turn, `c1ccc2c(NCc3cn4cccnc4n3)cccc2c1` [4b, N-(Naphthalen-1-yl)-1-(imidazo[1,2-a]pyrimidin-2-yl)methanamine] came in with a melting point of 217 to 219 °C.
As for `COc1ccc(NCc2cn3cccnc3n2)cc1` [4c, N-(4-Methoxyphenyl)-1-(imidazo[1,2-a]pyrimidin-2-yl)methanamine], the melting point was 175 to 176 °C.
On the same count and under the same terms, next, `FC(F)(F)c1ccc(N=Cc2cn3cccnc3n2)cc1` [3e, N-(4-Trifluoromethylphenyl)-1-(imidazo[1,2-a]pyrimidin-2-yl)methanimine]: 224 to 226 °C.
With `CCN(CC)c1ccc(/N=C/c2cn3cccnc3n2)cc1` [3d, N-(4-(N^ı,N^ı-Diethylamino)phenyl)-1-(imidazo[1,2-a]pyrimidin-2-yl)methanimine], the melting point was 182 to 183 °C. The compound further gave an IC50 in the series with HUVEC cells of 71.4 µM. Besides, in the series with Bax/Bcl-2 genes (IC50 dose (4d: 35.1 μM)), the “Bax/Bcl-2 ratio (mRNA expression level)” value was “did not have significant effects”. In addition, in the series on Bax/Bcl-2 genes (IC50 × 2 dose (4d: 70.2 μM)), the “Bax/Bcl-2 ratio (mRNA expression level)” value is given as “did not have significant effects”. Also, in the series on MCF-7 cells, the IC50 was 43.4 µM, the “inhibition on cell proliferation” value is “greatest inhibition” and the “Selectivity index (SI)” value came out at 1.6. In the series on MDA–MB-231 cells, the IC50 came to 35.9 µM, the “inhibition on cell proliferation” value is on record as “greatest inhibition” and the “Selectivity index (SI)” value came out at 2.0.
In turn, `FC(F)(F)c1ccc(NCc2cn3cccnc3n2)cc1` [4e, N-(4-Trifluoromethylphenyl)-1-(imidazo[1,2-a]pyrimidin-2-yl)methanamine] came in with a melting point of 217 to 218 °C.
Consider `COc1ccc(N=Cc2cn3cccnc3n2)cc1` [3c, N-(4-Methoxyphenyl)-1-(imidazo[1,2-a]pyrimidin-2-yl)methanimine], for which the melting point was in the range of 191 to 192 °C.
`c1ccc(NCc2cn3cccnc3n2)cc1` [4a, N-(Phenyl)-1-(imidazo[1,2-a]pyrimidin-2-yl)methanamine] had a melting point of 194 to 197 °C.
The compound `CCN(CC)c1ccc(NCc2cn3cccnc3n2)cc1` [4d, N-(4-(N^ı,N^ı-Diethylamino)phenyl)-1-(imidazo[1,2-a]pyrimidin-2-yl)methanamine] returned a melting point of 146 to 148 °C. Further, the IC50 in the series on HUVEC cells was 57 µM. In addition, in the series with Bax/Bcl-2 genes (IC50 dose (4d: 35.1 μM)), the “Bax/Bcl-2 ratio (mRNA expression level)” value came to 1.5 fold. The “Bax/Bcl-2 ratio (mRNA expression level)” value in the series on Bax/Bcl-2 genes (IC50 × 2 dose (4d: 70.2 μM)) was 1.8 fold. In the series with MCF-7 cells, the IC50 was 39 µM, the “inhibition on cell proliferation” value was “greatest inhibition” and the “Selectivity index (SI)” value was found to be 1.5. Further, in the series with MDA–MB-231 cells, the midpoint of inhibition, the IC50, lay at 35.1 µM; the “inhibition on cell proliferation” value is reported as “greatest inhibition”; the “Selectivity index (SI)” value is on record as 1.6.
